Results reported in ChEMBL document CHEMBL6121052, “Design of ROS-Triggered Sesquiterpene Lactone SC Prodrugs as TrxR1 Covalent Inhibitors for the Treatment of Non-Small Cell Lung Cancer” (J Med Chem, 2025).
Active and inactive are the calls of the source. The rule behind the calls is not given here.

What was measured:
A549 [1] = assay: Induction of apoptosis in human A549 cells assessed as chromatin condensation upto 10 uM by Hoechst 33258 staining based fluorescence microscopic analysis; format: functional, cell-based
A549 [2] = assay: Antiproliferative activity against human A549 cells assessed as decrease in EdU positive cells at 4 uM measured after 14 days by Hoechst 33342 staining based fluorescence microscopic analysis; format: functional, cell-based; conditions: time 14.0 day
NCI-H1299 [3] = assay: Induction of ROS accumulation in human TrxR1 knockdown NCI-H1299 cells incubated for 24 hrs; format: functional, cell-based
NCI-H1299 [4] = assay: Induction of ferroptosis in human NCI-H1299 cells assessed as effect on GPX4 protein expression at 10 uM incubated for 24 hrs by Western blotting analysis; format: functional, cell-based
NCI-H1299 [5] = assay: Antitumor activity against human NCI-H1299 cells xenografted in BALB/c mouse assessed as decrease in TrxR1 expression at 5 to 10 mg/kg, po administered every 2 days for 2 weeks by IHC analysis; format: functional, organism-based; conditions: dose 5-10 mg/kg
A549 [6] = assay: Induction of apoptosis in human A549 cells assessed as necrotic cells at 10 uM measured after 48 hrs by Annexin V/FITC staining based flow cytometric analysis (reference value: 2.52 %); format: functional
A549 [7] = assay: Induction of ferroptosis in human A549 cells assessed as increase in intracellular LPO accumulation at 5 uM incubated for 24 hrs by flow cytometry analysis; format: functional, cell-based
NCI-H1299 [8] = assay: Induction of apoptosis in human NCI-H1299 cells assessed as early apoptotic cells at 5 uM measured after 48 hrs by Annexin V/FITC staining based flow cytometric analysis (reference value: 1.14 %); format: functional
NCI-H1299 [9] = assay: Induction of apoptosis in human NCI-H1299 cells assessed as necrotic cells at 2.5 uM measured after 48 hrs by Annexin V/FITC staining based flow cytometric analysis (reference value: 0.62%); format: functional
A549 [10] = assay: Induction of apoptosis in human A549 cells assessed as increase in green fluorescence intensity upto 10 uM by AO/EB staining based fluorescence microscopic analysis; format: functional, cell-based
A549 [11] = assay: Induction of apoptosis in human A549 cells assessed as increase in Bax expression at upto 10 uM incubated for 24 hrs by Western blot analysis; format: functional, cell-based
Mitochondrial membrane = assay: Induction of mitochondrial membrane potential loss in human A549 cells assessed as increase in green fluorescence upto 10 uM incubated for 24 hrs by JC-1 staining based confocal microscopy analysis; format: cell membranes
NCI-H1299 [12] = assay: Antitumor activity against human NCI-H1299 cells xenografted in po dosed BALB/c mouse assessed as reduction in tumor growth administered every 2 days for 2 weeks; format: functional, organism-based; conditions: dose 5-10 mg/kg
NSCLC = assay: Downregulation of TrxR1 expression in human NSCLC cells; format: functional, cell-based
NCI-H1299 [13] = assay: Induction of apoptosis in human NCI-H1299 cells assessed as viable cells at 2.5 uM measured after 48 hrs by Annexin V/FITC staining based flow cytometric analysis (reference value: 96.3%); format: functional; conditions: read-out: Activity
NCI-H1299 [14] = assay: Induction of intracellular ROS generation in human NCI-H1299 cells upto 10 uM by DCFH-DA probe based fluorescence assay; format: functional, cell-based
NCI-H1299 [15] = assay: Antiproliferative activity against human NCI-H1299 cells assessed as decrease in EdU positive cells at 4 uM measured after 14 days by Hoechst 33342 staining based fluorescence microscopic analysis; format: functional, cell-based; conditions: time 14.0 day
NCI-H1299 [16] = assay: Induction of apoptosis in human NCI-H1299 cells assessed as necrotic cells at 10 uM measured after 48 hrs by Annexin V/FITC staining based flow cytometric analysis (reference value: 0.62%); format: functional
A549 [17] = assay: Induction of apoptosis in human A549 cells assessed as late apoptotic cells at 10 uM measured after 48 hrs by Annexin V/FITC staining based flow cytometric analysis (reference value: 5.37%); format: functional
A549 [18] = assay: Induction of apoptosis in human A549 cells assessed as late apoptotic cells at 2.5 uM measured after 48 hrs by Annexin V/FITC staining based flow cytometric analysis (reference value: 5.37%); format: functional
NCI-H1299 [19] = assay: Induction of apoptosis in human NCI-H1299 cells assessed as increase in green fluorescence intensity upto 10 uM by AO/EB staining based fluorescence microscopic analysis; format: functional, cell-based
[20] = Toxicity in BALB/c mouse assessed as lung damage at 5 to 10 mg/kg, po administered every 2 days for 2 weeks by H and E staining based analysis; format: organism-based; conditions: in vivo, 336 h, dose 5-10 mg/kg
NCI-H1299 [21] = assay: Induction of apoptosis in human NCI-H1299 cells assessed as chromatin condensation upto 10 uM by Hoechst 33258 staining based fluorescence microscopic analysis; format: functional, cell-based
[22] = Toxicity in BALB/c mouse assessed as body weight loss at 5 to 10 mg/kg, po administered every 2 days for 2 weeks; format: organism-based; conditions: in vivo, 336 h, dose 5-10 mg/kg
A549 [23] = assay: Induction of apoptosis in human A549 cells assessed as early apoptotic cells at 2.5 uM measured after 48 hrs by Annexin V/FITC staining based flow cytometric analysis (reference value: 1.31 %); format: functional
NCI-H1299 [24] = assay: Induction of apoptosis in human NCI-H1299 cells assessed as viable cells at 10 uM measured after 48 hrs by Annexin V/FITC staining based flow cytometric analysis (reference value: 96.3%); format: functional; conditions: read-out: Activity
[25] = Toxicity in BALB/c mouse assessed as spleen damage at 5 to 10 mg/kg, po administered every 2 days for 2 weeks by H and E staining based analysis; format: organism-based; conditions: in vivo, 336 h, dose 5-10 mg/kg
A549 [26] = assay: Induction of apoptosis in human A549 cells assessed as early apoptotic cells at 10 uM measured after 48 hrs by Annexin V/FITC staining based flow cytometric analysis (reference value: 1.31 %); format: functional
A549 [27] = assay: Induction of ferroptosis in human A549 cells assessed as cell death by MTT assay; format: functional, cell-based
A549 [28] = assay: Induction of apoptosis in human A549 cells assessed as early apoptotic cells at 5 uM measured after 48 hrs by Annexin V/FITC staining based flow cytometric analysis (reference value: 1.31 %); format: functional
[29] = AUC (0 to t) in male Sprague-Dawley rat at 10 mg/kg, iv measured upto 24 hrs by LC-MS/MS analysis; format: ADME, organism-based; conditions: in vivo
[30] = Toxicity in BALB/c mouse assessed as heart damage at 5 to 10 mg/kg, po administered every 2 days for 2 weeks by H and E staining based analysis; format: organism-based; conditions: in vivo, 336 h, dose 5-10 mg/kg
A549 [31] = assay: Induction of apoptosis in human A549 cells assessed as viable cells at 5 uM measured after 48 hrs by Annexin V/FITC staining based flow cytometric analysis (reference value: 90.8 %); format: functional; conditions: read-out: Activity
NCI-H1299 [32] = assay: Induction of apoptosis in human NCI-H1299 cells assessed as late apoptotic cells at 10 uM measured after 48 hrs by Annexin V/FITC staining based flow cytometric analysis (reference value: 1.96%); format: functional
NCI-H1299 [33] = assay: Induction of ferroptosis in human NCI-H1299 cells assessed as effect on SLC7A11 protein expression at 10 uM incubated for 24 hrs by Western blotting analysis; format: functional, cell-based
A549 [34] = assay: Induction of ferroptosis in human A549 cells assessed as effect on GPX4 protein expression at 10 uM incubated for 24 hrs by Western blotting analysis; format: functional, cell-based
A549 [35] = assay: Induction of apoptosis in human A549 cells assessed as decrease in BCl-2 expression at upto 10 uM incubated for 24 hrs by Western blot analysis; format: functional, cell-based

SMILES: CCCNC(=O)O[C@@H]1/C=C(\C)C[C@H]2C=C(C[C@@H]3OC(=O)[C@H](CSC(=S)N(C)C)[C@H]31)C(=O)O2
- Activity (A549 [1]): Active
- Activity (A549 [2]): Active
- Activity (NCI-H1299 [3]): Active
- Activity (NCI-H1299 [4]): Active
- Activity (NCI-H1299 [5]): Active
- Activity (A549 [6]): 3.24%
- Activity (A549 [7]): Active
- Activity (NCI-H1299 [8]): 10.2%
- Activity (NCI-H1299 [9]): 1.2%
- Activity (A549 [10]): Active
- Activity (A549 [11]): Active
- Activity (Mitochondrial membrane): Active
- Activity (NCI-H1299 [12]): Dose-dependent-effect
- Activity (NSCLC): Active
- viability at 2.5 µM (NCI-H1299 [13]): 89.7%
- Activity (NCI-H1299 [14]): Active
- Activity (NCI-H1299 [15]): Active
- Activity (NCI-H1299 [16]): 1.01%
- Activity (A549 [17]): 24.3%
- Activity (A549 [18]): 6.69%
- Activity (NCI-H1299 [19]): Active
- Activity [20]: Non-toxic
- Activity (NCI-H1299 [21]): Active
- Activity [22]: Non-toxic
- Activity (A549 [23]): 1.56%
- viability at 10 µM (NCI-H1299 [24]): 68.6%
- Activity [25]: Non-toxic
- Activity (A549 [26]): 3.68%
- Activity (A549 [27]): Active
- Activity (A549 [28]): 2.47%
- AUC(0-t) at 24 h [29]: 997 ng·h/mL
- Activity [30]: Non-toxic
- viability at 5 µM (A549 [31]): 77.8%
- Activity (NCI-H1299 [32]): 21.9%
- Activity (NCI-H1299 [33]): Active
- Activity (A549 [34]): Active
- Activity (A549 [35]): Active
